Source: ChEMBL document CHEMBL1201862, “PubChem BioAssay data set” (2004)
The source made the active and inactive calls.

Tests used:
Bcl-2-related protein A1 = Bcl-2-related protein A1 (Mus musculus, UniProt Q07440); type: functional;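 further: confirmatory dose–response counterscreen on Bfl-1, used to check hits from a UBC13 polyubiquitin inhibitor campaign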
[1] = biological target: T1, Ubiquitin-conjugating enzyme E2 N (Homo sapiens, UniProt P61088); type: functional;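 further: Dose-response confirmation in a TR-FRET assay detecting UBC13-driven polyubiquitin chain formation, inhibition measured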
T1 sequence (P61088 whole entry): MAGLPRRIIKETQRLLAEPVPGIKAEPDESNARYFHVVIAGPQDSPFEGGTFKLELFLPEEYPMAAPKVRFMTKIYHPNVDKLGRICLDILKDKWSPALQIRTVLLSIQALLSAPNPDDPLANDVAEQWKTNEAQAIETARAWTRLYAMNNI

[2] = cAMP pathway inhibition in counterscreen cell line – TR-FRET cAMP detection, counter-screen for MC4R biased antagonist project, dose response (AID 602305); type: functional, cell-based;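 further: U2OS cells stimulated with forskolin near its EC80 as the cAMP inducer; potency is for inhibition of forskolin-stimulated cAMP signaling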
Melanocortin receptor 4 = Melanocortin receptor 4 (Homo sapiens, UniProt P32245); assay: inhibitors of MC4R cAMP signaling – cell-based, TR-FRET, biased antagonists, dose response (AID 602298); type: functional;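 further: antagonist potency against agonist-stimulated cAMP production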
[3] = microbe, parasite or virus in culture; type: functional; conditions: Mycobacterium tuberculosis
[4] = biological target: G protein-coupled receptor kinase 5 (Homo sapiens, UniProt P34947); assay: Navigating the Kinome. Panel member name: GPRK5; type: functional
Activin receptor type-1 = Activin receptor type-1 (Homo sapiens, UniProt Q04771); assay: Navigating the Kinome. Panel member name: ACVR1; type: functional
[5] = biological target: Platelet-derived growth factor receptor alpha (Homo sapiens, UniProt P16234); assay: Navigating the Kinome. Panel member name: PDGFRA; type: functional
Activated CDC42 kinase 1 = Activated CDC42 kinase 1 (Homo sapiens, UniProt Q07912); assay: Navigating the Kinome. Panel member name: ACK1; type: functional
[6] = biological target: Serine/threonine-protein kinase pim-1 (Homo sapiens, UniProt P11309); type: functional
[7] = biological target: Cyclin-dependent kinase 5 (Homo sapiens, UniProt Q00535); type: functional;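 further: CDK5 measured as one member of a kinase profiling panel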
[8] = biological target: Serine/threonine-protein kinase Nek2 (Homo sapiens, UniProt P51955); type: functional
[9] = biological target: Calcium/calmodulin-dependent protein kinase type 1 (Homo sapiens, UniProt Q14012); type: functional
[10] = biological target: Glycogen synthase kinase-3 beta (Homo sapiens, UniProt P49841); type: functional;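 further: value comes from a broad kinome profiling panel, with GSK3B as the panel member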
SRSF protein kinase 1 = SRSF protein kinase 1 (Homo sapiens, UniProt Q96SB4); type: functional;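 further: measured as one member of a kinome-wide kinase profiling panel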
[11] = biological target: Serine/threonine-protein kinase PLK1 (Homo sapiens, UniProt P53350); type: functional;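 further: PLK1 measured as one member of a kinome-wide profiling panel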
[12] = biological target: Fibroblast growth factor receptor 3 (Homo sapiens, UniProt P22607); type: functional
[13] = biological target: 3-phosphoinositide-dependent protein kinase 1 (Homo sapiens, UniProt O15530); type: functional;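 further: value comes from the Navigating the Kinome panel, PDPK1 member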
[14] = biological target: Calcium/calmodulin-dependent protein kinase type II subunit gamma (Homo sapiens, UniProt Q13555); type: functional
[15] = biological target: Homeodomain-interacting protein kinase 2 (Homo sapiens, UniProt Q9H2X6); type: functional;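 further: measured within a kinome-wide kinase profiling panel, HIPK2 being one panel member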
[16] = biological target: Serine/threonine-protein kinase PAK 1 (Homo sapiens, UniProt Q13153); type: functional
Aurora kinase B = Aurora kinase B (Homo sapiens, UniProt Q96GD4); type: functional
[17] = biological target: MAP kinase-activated protein kinase 2 (Homo sapiens, UniProt P49137); type: functional;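 further: measured as one member of a kinome-wide kinase panel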
[18] = biological target: Serine/threonine-protein kinase MRCK alpha (Homo sapiens, UniProt Q5VT25); type: functional
Misshapen-like kinase 1 = Misshapen-like kinase 1 (Homo sapiens, UniProt Q8N4C8); type: functional;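 further: kinome panel screen with MINK as the panel member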
[19] = biological target: Megakaryocyte-associated tyrosine-protein kinase (Homo sapiens, UniProt P42679); type: functional;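 further: affinity measured as one member of a kinase panel (Navigating the Kinome) against MATK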
[20] = biological target: Tyrosine-protein kinase FRK (Homo sapiens, UniProt P42685); type: functional;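 further: FRK tested as one member of a kinome panel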
[21] = biological target: Mitogen-activated protein kinase kinase kinase 20 (Homo sapiens, UniProt Q9NYL2); type: functional
[22] = biological target: Tyrosine-protein kinase ABL1 (Homo sapiens, UniProt P00519); type: functional
[23] = biological target: MAP kinase-activated protein kinase 3 (Homo sapiens, UniProt Q16644); type: functional;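 further: value comes from a kinome-wide profiling panel in which MAPKAPK3 is one of the panel members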
[24] = biological target: cGMP-dependent protein kinase 1 (Homo sapiens, UniProt Q13976); type: functional;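 further: value from a kinome panel screen with PRKG1 as the panel member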
Ephrin type-A receptor 2 = Ephrin type-A receptor 2 (Homo sapiens, UniProt P29317); type: functional;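 further: EPHA2 tested as one member of a kinome-wide kinase panel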
[25] = biological target: Serine/threonine-protein kinase N2 (Homo sapiens, UniProt Q16513); type: functional
[26] = biological target: Phosphorylase b kinase gamma catalytic chain, liver/testis isoform (Homo sapiens, UniProt P15735); type: functional;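 further: PHKG2 measured as one member of a kinome-wide kinase panel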
[27] = biological target: MAP kinase-interacting serine/threonine-protein kinase 2 (Homo sapiens, UniProt Q9HBH9); type: functional
[28] = biological target: Casein kinase I isoform gamma-1 (Homo sapiens, UniProt Q9HCP0); type: functional;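 further: measured as the CSNK1G1 member of a kinome profiling panel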
[29] = biological target: Serine/threonine-protein kinase 3 (Homo sapiens, UniProt Q13188); type: functional;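 further: measured as one member of a kinome-wide kinase panel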
Insulin receptor = Insulin receptor (Homo sapiens, UniProt P06213); type: functional;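 further: insulin receptor kinase tested as one member of a kinome-wide kinase panel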
[30] = biological target: Serine/threonine-protein kinase Chk2 (Homo sapiens, UniProt O96017); type: functional;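 further: CHEK2 entry within a kinome-wide screening panel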
[31] = biological target: Non-receptor tyrosine-protein kinase TYK2 (Homo sapiens, UniProt P29597); type: functional
[32] = biological target: Serine/threonine-protein kinase BRSK1 (Homo sapiens, UniProt Q8TDC3); type: functional;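 further: measured within a kinome-wide kinase panel, with the target listed as KIAA1811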
H4 = assay: Luminescence Cell-Based Dose Response HTS to Identify Activators of 5'UTR Stem-Loop Driven Prion Protein mRNA Translation in H4 Neuroglioblastoma Cells. [Related pubchem assays: 1829 (Project Summary), 1814 (Primary HTS)]; type: functional; conditions: Homo sapiens
[33] = Luminescence Cell-Based Dose Response HTS to Identify Activators of Luciferase Translation or Activity in H4 […] Cells. [Related pubchem assays: 1829 (Project Summary), 1814 (Primary HTS)]; type: functional

Chain of Serine/threonine-protein kinase BRSK1 (Q8TDC3 whole entry): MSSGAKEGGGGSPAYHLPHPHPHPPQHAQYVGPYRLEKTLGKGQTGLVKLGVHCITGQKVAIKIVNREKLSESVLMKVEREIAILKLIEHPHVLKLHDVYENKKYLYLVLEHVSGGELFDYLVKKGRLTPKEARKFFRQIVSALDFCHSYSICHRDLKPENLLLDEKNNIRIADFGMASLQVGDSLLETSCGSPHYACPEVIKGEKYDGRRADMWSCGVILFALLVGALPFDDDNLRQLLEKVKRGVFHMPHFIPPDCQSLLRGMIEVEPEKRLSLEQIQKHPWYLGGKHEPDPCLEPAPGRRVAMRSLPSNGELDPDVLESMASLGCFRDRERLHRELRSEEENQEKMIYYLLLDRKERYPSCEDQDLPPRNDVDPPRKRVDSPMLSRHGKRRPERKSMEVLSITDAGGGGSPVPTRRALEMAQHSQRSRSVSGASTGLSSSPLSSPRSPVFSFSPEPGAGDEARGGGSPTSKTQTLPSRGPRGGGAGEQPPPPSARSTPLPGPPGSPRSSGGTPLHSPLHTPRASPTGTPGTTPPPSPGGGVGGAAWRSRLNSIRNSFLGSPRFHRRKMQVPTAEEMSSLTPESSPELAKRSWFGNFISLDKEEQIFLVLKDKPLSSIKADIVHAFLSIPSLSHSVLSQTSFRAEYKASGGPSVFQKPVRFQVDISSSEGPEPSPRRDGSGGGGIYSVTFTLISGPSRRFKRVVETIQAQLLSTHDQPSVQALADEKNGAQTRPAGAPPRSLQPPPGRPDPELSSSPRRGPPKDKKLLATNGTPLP
Chain of cGMP-dependent protein kinase 1 (Q13976 whole entry): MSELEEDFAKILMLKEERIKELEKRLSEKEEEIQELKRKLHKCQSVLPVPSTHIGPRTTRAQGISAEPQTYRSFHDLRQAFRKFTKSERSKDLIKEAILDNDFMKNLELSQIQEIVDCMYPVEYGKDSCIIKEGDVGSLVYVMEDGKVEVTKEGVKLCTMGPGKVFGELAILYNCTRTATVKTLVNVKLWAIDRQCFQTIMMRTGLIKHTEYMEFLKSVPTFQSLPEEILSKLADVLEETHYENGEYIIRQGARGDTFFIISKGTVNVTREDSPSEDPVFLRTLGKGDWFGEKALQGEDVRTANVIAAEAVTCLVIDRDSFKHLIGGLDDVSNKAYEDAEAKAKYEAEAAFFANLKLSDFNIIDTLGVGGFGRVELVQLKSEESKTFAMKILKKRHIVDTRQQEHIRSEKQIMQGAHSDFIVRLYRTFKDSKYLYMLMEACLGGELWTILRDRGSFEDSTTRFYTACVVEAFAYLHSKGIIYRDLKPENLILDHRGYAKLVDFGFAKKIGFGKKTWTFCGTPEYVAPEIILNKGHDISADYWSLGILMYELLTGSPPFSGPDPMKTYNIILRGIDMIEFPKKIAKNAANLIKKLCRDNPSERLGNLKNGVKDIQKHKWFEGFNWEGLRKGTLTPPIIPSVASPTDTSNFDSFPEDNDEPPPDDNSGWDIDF
Chain of Serine/threonine-protein kinase N2 (Q16513 whole entry, canonical isoform): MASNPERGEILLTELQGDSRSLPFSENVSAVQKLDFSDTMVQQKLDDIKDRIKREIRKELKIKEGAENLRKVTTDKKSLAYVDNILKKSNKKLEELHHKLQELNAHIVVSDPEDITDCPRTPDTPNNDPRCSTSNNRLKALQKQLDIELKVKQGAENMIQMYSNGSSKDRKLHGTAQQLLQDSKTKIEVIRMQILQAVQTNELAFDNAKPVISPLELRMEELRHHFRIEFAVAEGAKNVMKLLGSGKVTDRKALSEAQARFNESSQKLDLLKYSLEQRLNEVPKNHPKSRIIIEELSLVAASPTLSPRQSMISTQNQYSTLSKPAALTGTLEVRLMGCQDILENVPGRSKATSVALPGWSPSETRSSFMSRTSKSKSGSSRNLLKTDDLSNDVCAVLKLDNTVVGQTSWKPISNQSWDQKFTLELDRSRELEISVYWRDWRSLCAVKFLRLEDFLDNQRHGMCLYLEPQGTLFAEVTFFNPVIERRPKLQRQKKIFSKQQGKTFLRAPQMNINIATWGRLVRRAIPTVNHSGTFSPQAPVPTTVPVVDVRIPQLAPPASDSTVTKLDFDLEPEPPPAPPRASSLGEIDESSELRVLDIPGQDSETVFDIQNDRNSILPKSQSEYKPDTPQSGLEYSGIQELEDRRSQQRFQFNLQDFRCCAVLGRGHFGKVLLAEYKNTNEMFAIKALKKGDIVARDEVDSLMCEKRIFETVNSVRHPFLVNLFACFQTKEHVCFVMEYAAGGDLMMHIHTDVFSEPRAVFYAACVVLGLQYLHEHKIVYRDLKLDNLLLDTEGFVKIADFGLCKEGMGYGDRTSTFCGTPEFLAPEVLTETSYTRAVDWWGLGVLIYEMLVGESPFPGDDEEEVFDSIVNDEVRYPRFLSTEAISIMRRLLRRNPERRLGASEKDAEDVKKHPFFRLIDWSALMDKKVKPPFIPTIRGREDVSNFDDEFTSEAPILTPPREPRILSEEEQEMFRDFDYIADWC
Chain of Activin receptor type-1 (Q04771 whole entry): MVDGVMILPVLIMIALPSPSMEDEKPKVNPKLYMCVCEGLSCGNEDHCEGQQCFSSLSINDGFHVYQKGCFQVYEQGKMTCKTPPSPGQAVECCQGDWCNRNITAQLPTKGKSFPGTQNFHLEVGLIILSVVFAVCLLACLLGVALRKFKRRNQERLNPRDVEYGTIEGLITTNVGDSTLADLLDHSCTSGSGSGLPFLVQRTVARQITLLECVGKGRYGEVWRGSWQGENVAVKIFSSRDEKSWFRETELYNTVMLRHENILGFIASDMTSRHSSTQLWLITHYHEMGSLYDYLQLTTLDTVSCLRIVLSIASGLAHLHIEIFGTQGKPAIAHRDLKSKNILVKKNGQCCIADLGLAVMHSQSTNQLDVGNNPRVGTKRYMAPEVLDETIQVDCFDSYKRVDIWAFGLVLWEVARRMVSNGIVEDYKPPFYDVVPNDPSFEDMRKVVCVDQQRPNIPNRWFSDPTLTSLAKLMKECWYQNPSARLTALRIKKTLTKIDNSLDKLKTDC
Chain of Bcl-2-related protein A1 (Q07440 whole entry): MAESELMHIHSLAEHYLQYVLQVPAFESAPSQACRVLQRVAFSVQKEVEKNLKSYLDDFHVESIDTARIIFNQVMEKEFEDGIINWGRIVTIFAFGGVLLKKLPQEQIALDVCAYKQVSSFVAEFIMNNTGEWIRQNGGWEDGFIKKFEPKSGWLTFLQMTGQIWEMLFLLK
Chain of Insulin receptor (P06213 28-758 limits assumed): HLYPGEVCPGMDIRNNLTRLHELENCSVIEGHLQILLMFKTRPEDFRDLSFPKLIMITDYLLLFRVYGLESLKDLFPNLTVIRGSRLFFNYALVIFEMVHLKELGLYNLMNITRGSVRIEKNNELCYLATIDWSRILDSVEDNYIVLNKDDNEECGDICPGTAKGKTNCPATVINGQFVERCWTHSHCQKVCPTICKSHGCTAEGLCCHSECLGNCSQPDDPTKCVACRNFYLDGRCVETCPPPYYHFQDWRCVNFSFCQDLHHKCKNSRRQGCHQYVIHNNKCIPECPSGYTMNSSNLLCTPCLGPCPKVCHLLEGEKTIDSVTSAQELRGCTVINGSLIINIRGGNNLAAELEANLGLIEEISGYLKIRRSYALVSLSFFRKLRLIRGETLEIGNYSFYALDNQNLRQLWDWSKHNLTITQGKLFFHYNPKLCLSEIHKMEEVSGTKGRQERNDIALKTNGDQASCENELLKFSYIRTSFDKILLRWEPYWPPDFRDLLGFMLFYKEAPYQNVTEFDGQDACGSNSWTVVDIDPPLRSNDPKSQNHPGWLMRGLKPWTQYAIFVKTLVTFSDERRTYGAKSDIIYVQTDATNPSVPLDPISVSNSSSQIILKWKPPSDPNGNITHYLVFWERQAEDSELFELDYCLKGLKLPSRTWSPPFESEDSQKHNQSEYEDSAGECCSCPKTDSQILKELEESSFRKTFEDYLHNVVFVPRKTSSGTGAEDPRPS
Chain of Insulin receptor (P06213 763-1382 limits assumed): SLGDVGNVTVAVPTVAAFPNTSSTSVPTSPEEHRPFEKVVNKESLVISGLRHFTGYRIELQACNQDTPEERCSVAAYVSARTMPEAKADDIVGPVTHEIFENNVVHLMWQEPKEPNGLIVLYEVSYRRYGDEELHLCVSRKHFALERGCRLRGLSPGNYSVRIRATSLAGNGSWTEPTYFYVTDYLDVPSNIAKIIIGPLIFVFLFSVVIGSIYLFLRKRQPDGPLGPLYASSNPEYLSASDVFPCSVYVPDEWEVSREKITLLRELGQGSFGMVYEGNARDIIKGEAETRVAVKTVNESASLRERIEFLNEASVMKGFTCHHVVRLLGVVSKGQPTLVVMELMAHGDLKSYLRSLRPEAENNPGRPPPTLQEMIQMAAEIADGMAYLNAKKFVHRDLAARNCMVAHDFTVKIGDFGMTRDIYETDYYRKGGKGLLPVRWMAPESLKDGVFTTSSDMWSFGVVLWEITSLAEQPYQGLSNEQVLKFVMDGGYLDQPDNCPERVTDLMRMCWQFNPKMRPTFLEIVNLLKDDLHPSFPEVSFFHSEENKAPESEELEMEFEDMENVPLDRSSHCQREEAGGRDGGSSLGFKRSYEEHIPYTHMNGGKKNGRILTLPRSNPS
Chain of Serine/threonine-protein kinase 3 (Q13188 whole entry): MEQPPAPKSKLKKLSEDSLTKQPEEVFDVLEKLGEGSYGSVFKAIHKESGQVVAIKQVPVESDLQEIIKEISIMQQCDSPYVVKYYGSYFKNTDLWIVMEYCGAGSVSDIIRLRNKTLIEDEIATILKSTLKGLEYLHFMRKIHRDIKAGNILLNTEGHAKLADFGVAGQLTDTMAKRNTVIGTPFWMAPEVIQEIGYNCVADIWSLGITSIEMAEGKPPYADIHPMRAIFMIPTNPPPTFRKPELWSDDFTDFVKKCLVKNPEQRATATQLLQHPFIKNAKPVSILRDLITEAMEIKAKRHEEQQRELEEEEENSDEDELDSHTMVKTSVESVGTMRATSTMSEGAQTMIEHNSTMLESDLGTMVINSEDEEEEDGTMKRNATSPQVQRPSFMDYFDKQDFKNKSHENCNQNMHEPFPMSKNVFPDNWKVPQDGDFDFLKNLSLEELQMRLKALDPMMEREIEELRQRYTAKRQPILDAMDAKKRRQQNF

Compound: CCCCCCCCCCC[N+](C)(C)CC/C=C1/c2ccccc2Sc2ccc(Cl)cc21
- IC50 (Bcl-2-related protein A1): 8260 nM (active)
- IC50 [1]: 4770 nM (active)
- IC50 [2]: 25900 nM (inactive)
- IC50 (Melanocortin receptor 4): 24300 nM (inactive)
- CC50 [3]: 25400 nM (active)

Compound: CCn1c(-c2nonc2N)nc2cncc(C(=O)N3CCC(N)C3)c21 (stereo not drawn)
- Ki [4]: 3980 nM (active)
- Ki (Activin receptor type-1): > 3980 nM (inactive)
- Ki [5]: > 2510 nM (inactive)
- Ki (Activated CDC42 kinase 1): > 3980 nM (inactive)
- Ki [6]: 20 nM (active)
- Ki [7]: > 3160 nM (inactive)

Compound: Cc1[nH]nc2ccc(-c3cncc(OCC(N)Cc4c[nH]c5ccccc45)c3)cc12 (stereo not drawn)
- Ki [8]: > 10000 nM (inactive)
- Ki [9]: > 7940 nM (inactive)
- Ki [10]: 10 nM (active)
- Ki (SRSF protein kinase 1): 1260 nM (active)
- Ki [11]: > 7940 nM (inactive)
- Ki [12]: > 2000 nM (inactive)
- Ki [13]: 1580 nM (active)
- Ki [14]: 12.6 nM (active)
- Ki [15]: 79.4 nM (active)
- Ki [16]: 1260 nM (active)
- Ki (Aurora kinase B): 631 nM (active)
- Ki [17]: 2510 nM (active)
- Ki [18]: 50.1 nM (active)
- Ki (Misshapen-like kinase 1): 20 nM (active)
- Ki [19]: > 2000 nM (inactive)
- Ki [20]: > 2510 nM (inactive)
- Ki [21]: > 7940 nM (inactive)
- Ki [22]: > 631 nM (inactive)
- Ki [23]: > 10000 nM (inactive)
- Ki [24]: 251 nM (active)
- Ki (Ephrin type-A receptor 2): > 3160 nM (inactive)
- Ki [25]: 5.01 nM (active)
- Ki [26]: 1000 nM (active)
- Ki [27]: 3980 nM (active)
- Ki [28]: 39.8 nM (active)
- Ki [29]: 50.1 nM (active)
- Ki (Insulin receptor): 3980 nM (active)
- Ki [30]: 501 nM (active)
- Ki [31]: > 2000 nM (inactive)
- Ki [32]: 3980 nM (active)

Compound: COC(=O)c1ccccc1NC1=C/C(=N\S(=O)(=O)c2cccs2)c2ccccc2C1=O
- EC50 (H4): 1890 nM (active)
- EC50 [33]: > 120000 nM (not active)
